{"source": "patent US5824072A", "about": "“Biocompatible ocular implants” (Oculex Pharmaceuticals, Inc., priority 1996, dated 1998)", "key": {"[1]": {"conditions": "rabbit, in vivo", "method": "A 40% (by weight) of MTX and hydrocortisone and polylactate polymer were mixed under moltened conditions (Table 2). The resulting mixture was plated into a thin layer of approximately 0.4 to 0.5 mm in thickness and cooled overnight at room temperature. A plaque measuring approximately 3×4 mm was fashioned from the layer and was surgically placed into the pars plana.\nPlaques of MTX and hydrocortsone were given to one eye of each of 3 animals at the pars plana and over the vitreous base following scleral resection."}, "[2]": {"conditions": "rabbit, in vivo", "method": "One eye of each of six rabbits was implanted at the pars plana with methotrexate (MTX)-lactic acid microspheres and in one eye of another six rabbits with hydrocortisone, acetate-lactic acid microspheres.\nA 40% (by weight) mixture of MIX and hydrocortisone with polylactate polymer were solubilized in chloroform and ethanol (Table 1). Coacervation into microcapsules tool place in 500 ml of a 5% polyvinyl alcohol aqueous solution with moderate to high speed stirring. Evaporation was performed under light vacuum with constant stirring for an additional 8 hrs. The resulting microspheres measuring 0.1 to 0.5 mm were selected and dried in vacuum for an additional 24 to 48 hours. Approximately 25 microcapsules were implanted at the pars plana.", "remark": "listed apart in the source"}, "[3]": {"assay": "In vitro drug release from polyurethane sheets", "type": "physicochemical", "procedure": "After drying of the mixtures, implants were then cut from the resulting sheets of drug-filled polymer affixed to the release liner. The drug-release behavior of the polymeric, drug-containing sheets was then tested. The release liner was removed from an implant sheet and a weighed sample of the sheet added to a solution containing four parts by weight ethanol and six parts by weight of deionized water at 37° C. with slow stirring. The appearance of the dissolved drug was followed as a function of time by spectrophotometry."}}, "note": "Like-named read-outs stand apart in the source and are kept apart here.", "data": [{"smiles": "CN(Cc1cnc2nc(N)nc(N)c2n1)c1ccc(C(=O)N[C@@H](CCC(=O)O)C(=O)O)cc1", "note": "[MTX, methotrexate]", "values": [{"measurement": "drug concentration, LE PC", "setting": "[1]; 43200 min", "value": 0, "unit": "ng/mL"}, {"measurement": "drug concentration, LE PC", "setting": "[1]; 86400 min", "value": 0, "unit": "ng/mL"}, {"measurement": "drug concentration, LE PC", "setting": "[1]; 129600 min", "value": 0, "unit": "ng/mL"}, {"measurement": "drug concentration, LE PC", "setting": "[2]; 10080 min", "value": 0, "unit": "ng/mL"}, {"measurement": "drug concentration, LE PC", "setting": "[2]; 20160 min", "value": 0, "unit": "ng/mL"}, {"measurement": "drug concentration, LE PC", "setting": "[2]; 30240 min", "value": 0, "unit": "ng/mL"}, {"measurement": "drug concentration, LE PC", "setting": "[2]; 40320 min", "value": 0, "unit": "ng/mL"}, {"measurement": "drug concentration, LE PC", "setting": "[2]; 50400 min", "value": 0, "unit": "ng/mL"}, {"measurement": "drug concentration, LE PC", "setting": "[2]; 60480 min", "value": 0, "unit": "ng/mL"}]}, {"smiles": "Nc1nc(O)c2ncn(COC(CO)CO)c2n1", "note": "[gancyclovir]", "values": [{"measurement": "drug released from sheets", "setting": "[3]; Example 2 polyurethane/gancyclovir sheet, in vitro as described above, after the first 2 hrs", "value": "more than 60%"}]}, {"smiles": "C[C@]12CCC(=O)C=C1CC[C@@H]1[C@@H]2[C@@H](O)C[C@@]2(C)[C@H]1CC[C@]2(O)C(=O)CO", "note": "[Hydrocortisone, hydrocortisone]", "values": [{"measurement": "drug concentration, RE PC", "setting": "[1]; 43200 min", "value": 0, "unit": "ng/mL"}, {"measurement": "drug concentration, RE PC", "setting": "[1]; 86400 min", "value": 0, "unit": "ng/mL"}, {"measurement": "drug concentration, RE PC", "setting": "[1]; 129600 min", "value": 0, "unit": "ng/mL"}, {"measurement": "drug concentration, RE PC", "setting": "[2]; 10080 min", "value": 0, "unit": "ng/mL"}, {"measurement": "drug concentration, RE PC", "setting": "[2]; 20160 min", "value": 0, "unit": "ng/mL"}, {"measurement": "drug concentration, RE PC", "setting": "[2]; 30240 min", "value": 0, "unit": "ng/mL"}, {"measurement": "drug concentration, RE PC", "setting": "[2]; 40320 min", "value": 0, "unit": "ng/mL"}, {"measurement": "drug concentration, RE PC", "setting": "[2]; 50400 min", "value": 0, "unit": "ng/mL"}, {"measurement": "drug concentration, RE PC", "setting": "[2]; 60480 min", "value": 0, "unit": "ng/mL"}]}, {"smiles": "C[C@@H]1C[C@H]2[C@@H]3CCC4=CC(=O)C=C[C@]4(C)[C@@]3(F)[C@@H](O)C[C@]2(C)[C@@]1(O)C(=O)CO", "note": "[dexamethasone]", "values": [{"measurement": "drug released from sheets", "setting": "[3]; Example 1 polyurethane/dexamethasone sheet, ethanol/deionized water 4:6 by weight, 37° C., within 4 hrs", "value": "more than 50%"}]}]}
